The text below walks through data of patent US11364275B2, “Linear lipopeptide paenipeptins and methods of using the same” (priority 2017, dated 2022).

Like-named read-outs stand apart in the source and are kept apart here. Where a SMILES comes first, the peptide text is derived from it. [ ]: non-standard residue; d: D form. The star is where a group is joined. ξ: configuration not given here. Heptanoyl = CCCCCCC(=O)*; Octanoyl = CCCCCCCC(=O)*; Dab = NCC[C@H](N)C(=O)O; ξDab = NCCC(N)C(=O)O; Bz = O=C(c1ccccc1)* Bounds are passed on as bounds.

Broadly, the MBC is the lowest tested concentration that kills the bacteria rather than only halting them. For orientation: MIC means the lowest concentration that inhibits growth of the organism.

The subject of data set [1] is rabbit red blood cells. Nature of the data set: Hemolytic activity. The settings on record: for Hemolysis: relative to Triton X-100. In kind it is cell-based. On the procedure: Hemolytic activity was evaluated using defibrinated rabbit blood in a 96-well plate as described previously. A nonionic surfactant Triton X-100, which is capable of lysing red blood cells (RBCs), was used at 0.1% as a positive control. Briefly, rabbit blood (Hardy Diagnostics, Santa Maria, Calif.) was diluted with phosphate buffered saline (PBS; pH 7.2) at a 1:19 ratio (v/v) and free hemoglobin was removed by washing RBCs and centrifugation four times at 1,000×g at 4° C. for 5 min. Aliquots (50 μL) of washed RBCs were incubated with 150 μL two-fold dilutions of paenipeptin analogues at final concentrations of 16-128 μg/mL at 37° C. for 30 min in a microtiter plate (NBS, Corning Inc.). After incubation, treated RBCs were gently mixed by repeated pipetting. Aliquots (20 μL) of the cell suspension were mixed with 200 μL PBS in a new 96-well plate and centrifuged at 2,204×g for 10 min. The supernatant was transferred to a new 96-well plate for absorbance measurement at 415 nm using a Cell Imaging Multimode Reader (Cytation 3, BioTek; Winooski, Vt.). The percent hemolysis observed after exposure to each paenipeptin analogue was calculated relative to Triton X-100.

For data set [2], the system named is S. aureus ATCC 29213. Type of data set: cell-based, Staphylococcus aureus. An excerpt:
(§1) The surviving cells from each antimicrobial concentration with no visible growth were enumerated by plating on tryptic soy agar (TSA). MBC was defined as the lowest concentration of the antimicrobial agent that led to at least a 99.9% reduction in the number of viable bacterial cells relative to the initial inoculum. There were three independent experiments with one replicate in each experiment.

Data set [3] concerns P. aeruginosa ATCC 27853. In kind it is cell-based, Pseudomonas aeruginosa.
Source text: as §1

Data set [4] has as its system Pseudomonas aeruginosa ATCC 27853. Type of data set: cell-based.
Data set [5] relates to Escherichia coli ATCC 25922. In kind it is cell-based.
Procedure: (§3) The minimum inhibitory concentration (MIC) of paenipeptin analogues was determined using the broth microdilution method (Wirker, M. A. Methods for Dilution Antimicrobial Susceptibility Tests for Bacteria that Grow Aerobically: Approved Standard M07-A8; Clinical and Laboratory Standards Institute, Wayne, Pa., 2009). Seven reference strains (Acinetobacter baumannii ATCC 19606, Escherichia coli ATCC 25922, Klebsiella pneumoniae ATCC 13883, Pseudomonas aeruginosa ATCC 27853, Enterococcus faecium ATCC 19434, Staphylococcus aureus ATCC 29213 and methicillin-resistant S. aureus ATCC 43300) were subjected to MIC testing.
(§4) Paenipeptin analogues were two-fold diluted in tryptic soy broth (TSB; Becton Dickinson) and mixed with an equal volume of bacterial suspensions in TSB containing approximately 1.5×10^5 colony-forming units (CFU)/mL in a clear UV-sterilized 96-well microtiter plate (NBS, Corning Inc., Corning, N.Y.). […] The microtiter plate was incubated at 37° C. for 18-20 h.
Data set [6] relates to Staphylococcus aureus ATCC 29213. Type of data set: cell-based.
Data set [7] concerns methicillin-resistant S. aureus ATCC 43300. In kind it is cell-based, Staphylococcus aureus.
Procedure: as §3, §4
The subject of data set [8] is Acinetobacter baumannii ATCC 19606. Nature of the data set: MIC of antibiotics with or without paenipeptin analogues (potentiation). In kind it is cell-based. The following applies: A. baumannii ATCC 19606; for Sensitization factor (rifampicin): MIC without / with 4 μg/mL paenipeptin. An excerpt:
(§2) Gram-negative bacteria, including Acinetobacter and Klebsiella, are intrinsically resistant to the hydrophobic antibiotic rifampicin.

Data set [9] has as its system Klebsiella pneumoniae ATCC 13883. Described as above. In kind it is cell-based. The settings on record: K. pneumoniae ATCC 13883; for Sensitization factor (rifampicin): MIC without / with 4 μg/mL paenipeptin.
Source text: as §2

Data set [10] has the same test system. Type of data set: cell-based.
The test system of data set [11] is Enterococcus faecium ATCC 19434. Type of data set: cell-based.
The subject of data set [12] is Acinetobacter baumannii ATCC 19606. In kind it is cell-based.
Data set [13] deals with E. coli ATCC 25922. In kind it is cell-based, Escherichia coli. The following applies: ATCC 25922. As to the method:
The impact of human serum on the antibacterial activity of selected paenipeptin analogues was determined using a procedure similar to that used for MIC determination as described above except that the microbiological medium was replaced by human serum (MP Biomedicals, Solon, Ohio). Paenipeptin analogues were two-fold diluted in 100% human serum and mixed with an equal volume of 90% serum containing approximately 1.5×10^5 CFU/mL of E. coli ATCC 25922 or S. aureus ATCC 29213. The final paenipeptin concentrations ranged from 0.5-64 μg/mL in 95% serum. The MIC in the presence of serum was then tested as described above.

The subject of data set [14] is Escherichia coli ATCC 25922. Type of data set: in vitro ADME. On the procedure:
To determine the stability of peptides in human serum, paenipeptin analogues were added into 100% human serum to a final concentration of 64 μg/ml. The mixtures were incubated at 37° C. and samples were withdrawn at 0, 6, 12 and 24 h. […] The residual antibacterial activity after incubation in human serum was compared to the non-treated control.

Data set [15] relates to S. aureus ATCC 43300. In kind it is cell-based, Staphylococcus aureus.
Source text: as §1

Turning to `CCCCCCC(=O)N[C@@H](CCN)C(=O)N[C@@H](Cc1ccccc1)C(=O)N[C@@H](CCN)C(=O)N[C@H](Cc1ccccc1)C(=O)N[C@@H](CC(C)C)C(=O)N[C@@H](CCN)C(=O)N[C@H](CC(C)C)C(=O)N[C@@H](CC(C)C)C(=O)N[C@@H](CO)C(N)=O` [Analogue 6] (Heptanoyl-[Dab]F[Dab][dF]L[Dab][dL]LS-NH2), the Hemolysis in data set [1] (16 μg/mL) was 0.14 ± 0.20%; in data set [1] (32 μg/mL), 0.39 ± 0.30%; in data set [1] (64 μg/mL) it was 2.03 ± 0.44%; in data set [1] (128 μg/mL) it was 8.34 ± 1.80%. Moreover, the MBC is 16 to 32 µg/mL in data set [2] and 8 to 16 µg/mL in data set [3]. Also, the MIC is 2 to 4 µg/mL in [4] (ATCC 27853), 1 to 4 µg/mL in data set [5] (ATCC 25922), 16 to 32 µg/mL in [6] (ATCC 29213) and 16 to 32 µg/mL in data set [7] (ATCC 43300). Besides, the results for the Minimum inhibitory concentration in [5] (ATCC 25922) and in data set [6] (ATCC 29213) were 1 to 4 µg/mL and 16 to 32 µg/mL, respectively.

As to `CC[C@H](C)[C@H](NC(=O)[C@H](CCN)NC(=O)c1ccccc1)C(=O)N[C@@H](CCN)C(=O)N[C@H](Cc1ccccc1)C(=O)N[C@@H](CC(C)C)C(=O)N[C@@H](CCN)C(=O)N[C@@H](C(=O)N[C@@H](CC(C)C)C(=O)N[C@@H](CO)C(N)=O)C(C)C` [Analogue 14] (Bz-[Dab]I[Dab][dF]L[Dab][dV]LS-NH2), the “MIC of rifampicin at 2 μg/mL of paenipeptin analogue” value in [8] is reported as 0.03125 μg/ml; in [9] it was 0.0078 μg/ml. Further, the entries for the “Sensitization factor (rifampicin)” value in data set [8] and in data set [9] were 2,048-4,096 and 4,096-8,192, respectively. For the same compound, the “MIC of rifampicin at 4 μg/mL of paenipeptin analogue” value in [9] was 0.00195-0.0039 μg/ml. Further, the Hemolysis in data set [1] (16 μg/mL) is given as 0.22 ± 0.17%; in data set [1] (32 μg/mL) it was 0.71 ± 0.82%; in [1] (64 μg/mL), 1.14 ± 1.05%; in [1] (128 μg/mL), 0.70 ± 0.34%. Also, the minimum inhibitory concentration (MIC) in data set [10] (K. pneumoniae ATCC 13883, TSB) is greater than 32 µg/mL; in data set [11] (E. faecium ATCC 19434, TSB), greater than 32 µg/mL; in data set [4] (P. aeruginosa ATCC 27853, TSB), 8 to 32 µg/mL; in data set [12] (A. baumannii ATCC 19606, TSB), greater than 32 µg/mL; in data set [5] (E. coli ATCC 25922, TSB), 16 to 32 µg/mL; in data set [6] (S. aureus ATCC 29213, TSB), greater than 32 µg/mL. In data set [7] (S. aureus ATCC 43300, TSB), this compound showed an MIC greater than 32 µg/mL.

With `CCCCCCCC(=O)N[C@@H](CCN)C(=O)N[C@H](C(=O)N[C@@H](CCN)C(=O)N[C@H](Cc1ccccc1)C(=O)N[C@@H](CC(C)C)C(=O)N[C@@H](CCN)C(=O)N[C@@H](C(=O)N[C@@H](CC(C)C)C(=O)N[C@@H](CCN)C(N)=O)C(C)C)[C@@H](C)CC` [Analogue 9] (Octanoyl-[Dab]I[Dab][dF]L[Dab][dV]L[Dab]-NH2), the “MIC of ampicillin in the presence of […] μg/ml paenipeptin analogue” value is listed as 1-2 μg/ml in [8] and 32 μg/ml in [9]. Moreover, the “MIC of erythromycin in the presence of […] μg/ml paenipeptin analogue” value in data set [8] is 0.125-0.25 μg/ml; in data set [9], 0.0625 μg/ml. Besides, the “MIC of rifampicin at 2 μg/mL of paenipeptin analogue” value in data set [8] is given as 0.0019 μg/ml. Also, the “MIC of rifampicin at 4 μg/mL of paenipeptin analogue” value was 0.00195 μg/ml in [8] and <0.00098-0.00195 μg/ml in data set [9]. Further, the “MIC of vancomycin in the presence of […] μg/ml paenipeptin analogue” value in data set [8] is 0.25-0.5 μg/ml; in [9], 16 μg/ml. Moreover, the results for the “Sensitization factor (clarithromycin)” value in [8] (4 μg/mL paenipeptin) and in [9] (4 μg/mL paenipeptin) were 4,096-8,192 and 2,048, respectively. For the same compound, the “Sensitization factor (erythromycin)” value in data set [8] (4 μg/mL paenipeptin) is on record as 128-256. Moreover, the “MIC of clarithromycin in the presence of […] μg/ml paenipeptin analogue” value in [9] is 0.0156 μg/ml. Moreover, the Hemolysis in data set [1] (16 μg/mL) turned out to be 0.52 ± 0.58%; in data set [1] (32 μg/mL), 0.80 ± 0.68%; in data set [1] (64 μg/mL), 0.73 ± 0.50%; in data set [1] (128 μg/mL), 2.25 ± 2.18%. Also, in data set [1] (128 μg/mL), the “hemolytic activity (in words)” value was “non-hemolytic”. Further, the MIC in [10] (ATCC 13883) is greater than 32 µg/mL; in data set [4] (ATCC 27853), 2 to 4 µg/mL; in data set [12] (ATCC 19606), no less than 32 µg/mL; in data set [5] (ATCC 25922), 4 to 16 µg/mL; in data set [6] (ATCC 29213), greater than 32 µg/mL. Besides, the Minimum inhibitory concentration is 2 to 4 µg/mL in [13], 4 to 16 µg/mL in data set [5] (ATCC 25922) and greater than 32 µg/mL in data set [6] (ATCC 29213). The “MIC after incubation in human serum at 37° C.” value in [14] (ATCC 25922, 0 h) fell in the range of 1 to 2 µg/mL; in data set [14] (ATCC 25922, 12 h), 1 to 2 µg/mL.

With `CCCCCCC(=O)N[C@@H](CCN)C(=O)N[C@H](C(=O)N[C@@H](CCN)C(=O)N[C@H](Cc1ccccc1)C(=O)N[C@@H](CC(C)C)C(=O)N[C@@H](CCN)C(=O)N[C@H](CC(C)C)C(=O)N[C@@H](CC(C)C)C(=O)N[C@@H](CO)C(N)=O)[C@@H](C)CC` [Analogue 5] (Heptanoyl-[Dab]I[Dab][dF]L[Dab][dL]LS-NH2), the Hemolysis in data set [1] (16 μg/mL) was found to be 0.96 ± 0.59%; in [1] (32 μg/mL), 1.39 ± 0.55%; in [1] (64 μg/mL), 4.86 ± 1.05%; in data set [1] (128 μg/mL) it was 26.5 ± 4.45%. Further, the MBC is 16 to 32 µg/mL in data set [15], 16 to 32 µg/mL in data set [2] and 8 to 16 µg/mL in data set [3]. The minimum inhibitory concentration (MIC) is 8 to 16 µg/mL in data set [11] (ATCC 19434); 2 to 4 µg/mL in [4] (ATCC 27853); 8 to 16 µg/mL in data set [12] (ATCC 19606); 1 to 4 µg/mL in data set [5] (ATCC 25922); 16 to 32 µg/mL in data set [6] (ATCC 29213). For the same compound, the Minimum inhibitory concentration was 1 to 4 µg/mL in data set [5] (ATCC 25922) and 16 to 32 µg/mL in data set [6] (ATCC 29213).

Take `CCCCCCCC(=O)N[C@@H](CCN)C(=O)NC(CCN)C(=O)N[C@@H](CCN)C(=O)N[C@H](Cc1ccccc1)C(=O)N[C@@H](CC(C)C)C(=O)N[C@@H](CCN)C(=O)N[C@@H](C(=O)N[C@@H](CC(C)C)C(=O)N[C@@H](CCN)C(N)=O)C(C)C` (some centres unmarked) [Analogue 10] (Octanoyl-[Dab][ξDab][Dab][dF]L[Dab][dV]L[Dab]-NH2): the “MIC of rifampicin at 4 μg/mL of paenipeptin analogue” value was 0.0313-0.0625 μg/ml in data set [8] and 0.0625 μg/ml in [9]. Moreover, the “Sensitization factor (rifampicin)” value in data set [8] was 256-512; in [9] it was 256. The “MIC of rifampicin at 2 μg/mL of paenipeptin analogue” value in [9] is on record as 0.0625-0.125 μg/ml. The Hemolysis in data set [1] (16 μg/mL) was 0.37 ± 0.62%; in data set [1] (32 μg/mL), 0.38 ± 0.62%; in data set [1] (64 μg/mL), 0.41 ± 0.53%; in [1] (128 μg/mL), 0.80 ± 0.40%. Also, the MIC in data set [10] (ATCC 13883) was greater than 32 µg/mL; in data set [11] (ATCC 19434), greater than 32 µg/mL; in [4] (ATCC 27853) it was 16 to 32 µg/mL; in [12] (ATCC 19606), greater than 32 µg/mL; in data set [5] (ATCC 25922) it was greater than 32 µg/mL; in data set [6] (ATCC 29213) it was no less than 32 µg/mL. Besides, the MIC in data set [7] (ATCC 43300) is greater than 32 µg/mL.
